Measurements as given in patent publication US10054581B1, “Inhibitors of notch signaling pathway and use thereof in treatment of cancers” (Ecole Polytechnique Federale de Lausanne (EPFL), priority 2011, dated 2018).
Entries after “also recorded” stand apart in the source; their conditions may differ.

What was measured:
[1] = tested on: NICD/MAML1 Notch transcriptional activation complex; assay: MAML1 rescue: HeLa cells co-transfected with NICD and MAML1-FLAG, 12×CSL luciferase; assay type: cell-based; conditions: 24 hours
Method: HeLa cells were co-transfected 800 ng of NICD+3 μg of pCDNA3.1 or 800 ng of NICD+1 μg of MAML1-FLAG or 800 ng of NICD+3 μg of MAML1-FLAG expression vectors. To measure Notch pathway activation, pGL4.26-12×CSL luciferase plasmid was also introduced into the cells. SV40 renilla was used as an internal control. Cells transfected with different combinations and amounts of plasmid were treated with DMSO or increasing concentration of 6-(4-Tert-Butylphenoxy)Pyridin-3-Amine (I3) (1, 2.5, 5 and 10 μM) for 24 hours. 12×CSL driven luciferase activity was measured using dual luciferase assay system.
NICD-GFP overexpression studies were performed using pEGFP-C1-NICD expression plasmid. The FLAG-CMV2 plasmid expressing MAML1-FLAG was a kind gift from Dr. Lizi Wu, Harvard Medical School, Boston.
To further investigate the mechanism of action of 6-(4-Tert-Butylphenoxy)Pyridin-3-Amine (I3), Applicants speculated that 6-(4-Tert-Butylphenoxy)Pyridin-3-Amine (I3) might be targeting one of the components of the transcriptional activation complex. The over expression of this target protein may titrate out 6-(4-Tert-Butylphenoxy)Pyridin-3-Amine (I3) compound and thus rescue 6-(4-Tert-Butylphenoxy)Pyridin-3-Amine (I3) induced pathway inhibition. […] The Notch pathway activation was measured by introducing 12×CSL luciferase plasmid. […]

RPMI8402 = assay: Annexin V apoptosis, RPMI8402; assay type: cell-based, human; conditions: 10 μM, 7 days
Method: (§1) FIGS. 6A-6D show 6-(4-Tert-Butylphenoxy)Pyridin-3-Amine (I3) induces G0/G1 cell cycle arrest and apoptosis in human T cell acute lymphoblastic leukemia cell lines and human breast cancer cell line HCC1187. […] Percentage of Annexin V positive (apoptotic) cell population was measured using flow cytometry.
(§2) To quantitate the percentage of apoptotic cells, AnnexinV and 7AAD staining was performed. Thymic cells were suspended in 300 μl of 1× AnnexinV binding buffer (BD Biosciences, San Diego, USA) and incubated with 10 μl of AnnexinV-Cy5 antibody and 10 μl of 7AAD (BD Biosciences, San Diego, USA). Samples were incubated for 15 minutes at room temperature. FACS was performed with in one hour of antibody staining.
(§3) This 6-(4-Tert-Butylphenoxy)Pyridin-3-Amine (I3) mediated proliferative arrest could be due to induction of apoptosis or cell cycle arrest during different phases of cell cycle. […] Therefore to further elucidate the mechanisms responsible for 6-(4-Tert-Butylphenoxy)Pyridin-3-Amine (I3) mediated proliferative arrest cell cycle and apoptosis analyses were carried out. […] To investigate cell death, Annexin V staining was performed and proportion of apoptotic (AnnexinV positive) cell population was determined by flow cytometry analyses after 7 days of treatment.

KOPTK1 [2] = assay: Annexin V apoptosis, KOPTK1; assay type: cell-based, human; conditions: 10 μM, 7 days
Method: as §1, §2, §3

TALL1 = assay: Annexin V apoptosis, TALL1; assay type: cell-based, human; conditions: 10 μM, 7 days
Method: as §1, §2, §3

KOPTK1 [3] = assay: Cell cycle analysis (Ki67 and Hoechst stain), KOPTK1; assay type: cell-based, human; conditions: 10 μM
Method: as §1
In addition to induction of apoptosis, the proliferative arrest observed in 6-(4-Tert-Butylphenoxy)Pyridin-3-Amine (I3) treated human leukemic cell lines and breast cancer cell line also appears to be due to cell cycle arrest in G0/G1 phase of the cell cycle. Leukemic cell lines (RPMI8402, KOPTK1 and TALL1) and breast cancer cell lines were treated with 6-(4-Tert-Butylphenoxy)Pyridin-3-Amine (I3) for 48 hours and cell cycle status was determined using Ki67 and Hoechst stain.

[4] = tested on: Hedgehog signalling (Gli1); assay: Hedgehog signalling Gli1 luciferase assay in HeLa cells; assay type: cell-based; conditions: HeLa cells with Gli1 and Gli1 binding site luciferase
Excerpt: Using a similar strategy, Hedgehog signalling was activated in HeLa cells by introducing the Gli1 transcription factor and pathway activation was monitored using a promoter sequence containing Gli1 binding sites driving the luciferase expression. […] However it still needs to be determined whether the resistance of Wnt and Hedgehog signalling towards 6-(4-Tert-Butylphenoxy)Pyridin-3-Amine (I3) is cell type specific or whether it is a general phenomenon.

Compound: CC(C)(C)c1ccc(Oc2ccc(N)cn2)cc1 [I3, 6-(4-Tert-Butylphenoxy)Pyridin-3-Amine]
- Notch signalling, NICD + 1 μg MAML1 ([1]; 800 ng NICD + 1 μg MAML1-FLAG, I3 1-10 μM): can block Notch signalling in a concentration dependent manner
- Notch signalling, NICD alone (no MAML1) ([1]; 800 ng NICD, I3 1, 2.5, 5 and 10 μM): can block Notch signalling in a concentration dependent manner; also recorded: could block Notch signalling activations
- apoptosis (Annexin V positive cells) (RPMI8402): induces significant apoptosis
- apoptosis (Annexin V positive cells) (KOPTK1 [2]): induces significant apoptosis
- apoptosis (Annexin V positive cells) (TALL1): induces significant apoptosis
- cell cycle status (KOPTK1 [3]; 48 hours): induces an arrest in the G0/G1 phase of the cell cycle
- increase in cells arrested in G0/G1 phase of the cell cycle (KOPTK1 [3]; stated jointly for RPMI8402, KOPTK1 and TALL1): 20-30%
- Hedgehog signalling [4]: did not inhibit the Hedgehog signalling cascade
